Values of other authors in PubChem BioAssay AID1259409 (Chemical Carcinogenesis Research Information System (CCRIS), 2018).

System: rodent chemically induced tumor inhibition, incidence and multiplicity
Assay: CCRIS tumor inhibitor studies
Conditions: Promoter: NONE USED

O=[N+]([O-])[O-].O=[N+]([O-])[O-].O=[N+]([O-])[O-].[Bi+3]
tumour outcome (control, treated, inhibition, significance) (Carcinogen: CISPLATIN, 15663-27-1, Dose [Inhibitor]: 0, 50 UMOL/KG/D 3 D/WK FOR 8 WK ADMINISTERED 24 HR PRIOR TO EACH CARCINOGEN DOSE (STUDY DURATION: 24 WK), Route [Inhibitor]: SUBCUTANEOUS, Species: MOUSE, Strain/Sex: STRAIN-A/FEMALE, Target Tissue: Type of Lesion: LUNG: TUMOR, Dose [Carcinogen]: 2 UMOL/KG/D 3 D/WK FOR 8 WK): 100%, 54%, 46%, p<0.01 | tumour outcome (control, treated, inhibition, significance) (Carcinogen: MELPHALAN, 148-82-3, Dose [Inhibitor]: 0, 50 UMOL/KG/D 3 D/WK FOR 8 WK ADMINISTERED 24 HR PRIOR TO EACH CARCINOGEN DOSE (STUDY DURATION: 24 WK), Route [Inhibitor]: SUBCUTANEOUS, Species: MOUSE, Strain/Sex: STRAIN-A/FEMALE, Target Tissue: Type of Lesion: LUNG: TUMOR, Dose [Carcinogen]: 4 UMOL/KG/D 3 D/WK FOR 8 WK): 100%, 100%, 0%, not significant

CCCCCCCCCCCCCCCC(=O)OCC1(O)CC23CC[C@@H]4c5ccoc5C=CC4(C)C2CCC1C3 (stereo partly specified)
tumour outcome (control, treated, inhibition, significance) (Carcinogen: 7,12-DIMETHYLBENZ[A]ANTHRACENE, 57-97-6, Dose [Inhibitor]: 0, 60 MG 1/D FOR 3 D BEGINNING 3 D PRIOR TO CARCINOGEN DOSE (STUDY DURATION: 20 WK), Route [Inhibitor]: GAVAGE, Species: RAT, Strain/Sex: SPRAGUE-DAWLEY/FEMALE, Target Tissue: Type of Lesion: MAMMARY GLAND: TUMOR, Dose [Carcinogen]: 12 MG IN 1 ML OLIVE OIL ONCE): 84%, 56%, 33%, p<0.05 | tumour outcome (control, treated, inhibition, significance) (Carcinogen: 7,12-DIMETHYLBENZ[A]ANTHRACENE, 57-97-6, Dose [Inhibitor]: 0, 60 MG ONCE 4 HR PRIOR TO CARCINOGEN DOSE (STUDY DURATION: 20 WK), Route [Inhibitor]: GAVAGE, Species: RAT, Strain/Sex: SPRAGUE-DAWLEY/FEMALE, Target Tissue: Type of Lesion: MAMMARY GLAND: TUMOR, Dose [Carcinogen]: 12 MG IN 1 ML OLIVE OIL ONCE): 84%, 63%, 25%, p<0.05

CC(C(=O)O)c1ccc(-c2ccccc2)c(F)c1 (stereo unspecified)
tumour outcome (control, treated, inhibition, significance) (Carcinogen: N-METHYL-N-NITROSOUREA, 684-93-5, Dose [Inhibitor]: 31.25 MG/KG DIET DAILY STARTING 1 WK AFTER CARCINOGEN ADMINISTRATION AND CONTINUING THROUGH THE END OF THE STUDY (STUDY, Route [Inhibitor]: ORAL, Species: RAT, Strain/Sex: SPRAGUE-DAWLEY/FEMALE, Target Tissue: Type of Lesion: MAMMARY GLAND: CARCINOMA, Dose [Carcinogen]: 25 MG/KG BW ONCE): 91%, 60%, 34%, p<0.05 | tumour outcome (control, treated, inhibition, significance) (Carcinogen: N-METHYL-N-NITROSOUREA, 684-93-5, Dose [Inhibitor]: 31.25 MG/KG DIET DAILY STARTING 1 WK AFTER CARCINOGEN ADMINISTRATION AND CONTINUING THROUGH THE END OF THE STUDY (STUDY, Route [Inhibitor]: ORAL, Species: RAT, Strain/Sex: SPRAGUE-DAWLEY/FEMALE, Target Tissue: Type of Lesion: MAMMARY GLAND: CARCINOMA, Dose [Carcinogen]: 50 MG/KG BW ONCE): 100%, 100%, 0%, not significant | tumour outcome (control, treated, inhibition, significance) (Carcinogen: N-METHYL-N-NITROSOUREA, 684-93-5, Dose [Inhibitor]: 31.25 MG/KG IN DIET STARTING 1 WK AFTER CARCINOGEN DOSE AND CONTINUING THROUGH THE END OF THE STUDY (STUDY DURATION: 180, Route [Inhibitor]: ORAL, Species: RAT, Strain/Sex: SPRAGUE-DAWLEY/FEMALE, Target Tissue: Type of Lesion: MAMMARY GLAND: CARCINOMA, Dose [Carcinogen]: 25 MG/KG BW ONCE): 91%, 60%, 34%, p<0.05 | tumour outcome (control, treated, inhibition, significance) (Carcinogen: N-METHYL-N-NITROSOUREA, 684-93-5, Dose [Inhibitor]: 31.25 MG/KG IN DIET STARTING 1 WK AFTER CARCINOGEN DOSE AND CONTINUING THROUGH THE END OF THE STUDY (STUDY DURATION: 180, Route [Inhibitor]: ORAL, Species: RAT, Strain/Sex: SPRAGUE-DAWLEY/FEMALE, Target Tissue: Type of Lesion: MAMMARY GLAND: CARCINOMA, Dose [Carcinogen]: 50 MG/KG BW ONCE): 100%, 100%, 0%, not significant | tumour outcome (control, treated, inhibition, significance) (Carcinogen: N-METHYL-N-NITROSOUREA, 684-93-5, Dose [Inhibitor]: 62.5 MG/KG DIET DAILY STARTING 1 WK AFTER CARCINOGEN ADMINISTRATION AND CONTINUING THROUGH THE END OF THE STUDY (STUDY D, Route [Inhibitor]: ORAL, Species: RAT, Strain/Sex: SPRAGUE-DAWLEY/FEMALE, Target Tissue: Type of Lesion: MAMMARY GLAND: CARCINOMA, Dose [Carcinogen]: 25 MG/KG BW ONCE): 91%, 68%, 25%, p<0.1 | tumour outcome (control, treated, inhibition, significance) (Carcinogen: N-METHYL-N-NITROSOUREA, 684-93-5, Dose [Inhibitor]: 62.5 MG/KG DIET DAILY STARTING 1 WK AFTER CARCINOGEN ADMINISTRATION AND CONTINUING THROUGH THE END OF THE STUDY (STUDY D, Route [Inhibitor]: ORAL, Species: RAT, Strain/Sex: SPRAGUE-DAWLEY/FEMALE, Target Tissue: Type of Lesion: MAMMARY GLAND: CARCINOMA, Dose [Carcinogen]: 50 MG/KG BW ONCE): 100%, 100%), 0%, not significant | tumour outcome (control, treated, inhibition, significance) (Carcinogen: N-METHYL-N-NITROSOUREA, 684-93-5, Dose [Inhibitor]: 62.5 MG/KG IN DIET STARTING 1 WK AFTER CARCINOGEN DOSE AND CONTINUING THROUGH THE END OF THE STUDY (STUDY DURATION: 180, Route [Inhibitor]: ORAL, Species: RAT, Strain/Sex: SPRAGUE-DAWLEY/FEMALE, Target Tissue: Type of Lesion: MAMMARY GLAND: CARCINOMA, Dose [Carcinogen]: 25 MG/KG BW ONCE): 91%, 68%, 25%, p<0.1 | tumour outcome (control, treated, inhibition, significance) (Carcinogen: N-METHYL-N-NITROSOUREA, 684-93-5, Dose [Inhibitor]: 62.5 MG/KG IN DIET STARTING 1 WK AFTER CARCINOGEN DOSE AND CONTINUING THROUGH THE END OF THE STUDY (STUDY DURATION: 180, Route [Inhibitor]: ORAL, Species: RAT, Strain/Sex: SPRAGUE-DAWLEY/FEMALE, Target Tissue: Type of Lesion: MAMMARY GLAND: CARCINOMA, Dose [Carcinogen]: 50 MG/KG BW ONCE): 100%, 100%, 0%, not significant

Cc1occc(=O)c1O
tumour outcome (control, treated, inhibition, significance) (Carcinogen: BENZO[A]PYRENE, 50-32-8, Dose [Inhibitor]: 0.034 MMOL/G IN DIET BEGINNING 1 WK PRIOR TO CARCINOGEN DOSE AND CONTINUING FOR 3 D POST LAST CARCINOGEN DOSE (STUDY DUR, Route [Inhibitor]: ORAL, Species: MOUSE, Strain/Sex: ICR/FEMALE, Target Tissue: Type of Lesion: FORESTOMACH: TUMOR, Dose [Carcinogen]: 1 MG IN 0.2 ML CORN OIL 2/WK FOR 4 WK): 94%, 100%, -6%, not significant

CC/C=C\C/C=C\C/C=C\C/C=C\C/C=C\CCCC(=O)O
tumour outcome (control, treated, inhibition, significance) (Carcinogen: 7,12-DIMETHYLBENZ[A]ANTHRACENE, 57-97-6, Dose [Inhibitor]: 0, 0.5 ML 2/WK FOR 19 WK BEGINNING 1 WK POST CARCINOGEN DOSE ADMINISTERED TO RATS FED HIGH-FAT (20% CORN OIL) DIETS (STU, Route [Inhibitor]: GAVAGE, Species: RAT, Strain/Sex: SPRAGUE-DAWLEY/FEMALE, Target Tissue: Type of Lesion: MAMMARY GLAND: ADENOCARCINOMA, Dose [Carcinogen]: 5 MG ONCE AT 50 D OF AGE): 24/30 (80%), 10/24 (42%), 48%, p<0.05 | tumour outcome (control, treated, inhibition, significance) (Carcinogen: AZOXYMETHANE, 25843-45-2, Dose [Inhibitor]: 4.7% (VOL/VOL) IN 5% FAT DIET CONTAINING 0.3% LINOLEIC ACID FOR DURATION OF STUDY (STUDY DURATION: 26 WK), Route [Inhibitor]: ORAL, Species: RAT, Strain/Sex: DONRYU/MALE, Target Tissue: Type of Lesion: COLON: ADENOCARCINOMA, Dose [Carcinogen]: 7.4 MG/KG BW IN 0.9% SALINE SOLUTION 1/WK FOR FIRST 11 WK): 20/29 (69%), 10/30 (33%), 52%, p<0.01

CC(C)=CCC/C(C)=C/CO
tumour outcome (control, treated, inhibition, significance) (Carcinogen: 7,12-DIMETHYLBENZ[A]ANTHRACENE, 57-97-6, Dose [Inhibitor]: 0, 36 MMOL/KG IN DIET FOR 24 WK BEGINNING 2 WK PRIOR TO CARCINOGEN DOSE (STUDY DURATION: 24 WK), Route [Inhibitor]: ORAL, Species: RAT, Strain/Sex: SPRAGUE-DAWLEY/FEMALE, Target Tissue: Type of Lesion: MAMMARY GLAND: TUMOR, Dose [Carcinogen]: 65 MG/KG BW ONCE): 91%, 81%, 11%, not significant
